Assay results as given in publication PMC5104426, “Screening a Phage Display Library for Two Novel OmpU-Binding Peptides with Adhesion Antagonistic Activity against Vibrio mimicus” (PLoS ONE, 2016).
“And” between values parts separate entries of the source, which are not always exact repeats. Identical values can stand only once.

Tests used:
grass carps = test: Acute toxicity to grass carps; type: in vivo, Ctenopharyngodon idella; settings: 100 mg/kg i.p., six fish per group; for survival in the 7-day study period: 7 days
Experimental: Healthy grass carps weighting 50–52 g were purchased from a commercial fish farm in Anhui province of China, and then were maintained in a flow-through water system at a temperature of 25 ± 1°C and fed commercial pellets on a daily basis. After 14 days when grass carps were confirmed to be healthy, the water temperature was increased to 28 ± 1°C slowly, and the experiment began.
For acute toxicity detection, synthetic P1, P2 and unrelated control peptide was dissolved in sterile deionized water, respectively, and given to grass carps by intraperitoneal (i.p.) injection at a dose of 100 mg/kg, six fish per group. The number of fish surviving in each group was monitored for up to a period of 7 days after injection. At the end of the experiments, all surviving fish were euthanized in a solution of 200 mg/L of MS-222 followed by a blow to the head.

[1] = test system: V. mimicus 04–14 isolate adhesion to EPC cells; test: Peptide adhesion inhibition test: V. mimicus adhesion to EPC cells; type: cell-based, Vibrio mimicus; settings: 500 μg/mL peptide mixed with equal volume of V. mimicus 04–14 (2 × 10^7 CFU/mL), 1 h 28°C, then 1 h on EPC cells, crystal violet, 30 cells counted, mean ± SD, triplicate
Experimental: When EPC cells grown in 24-well plate containing coverslips formed a confluent monolayer, the medium was changed to RPMI-1640 medium without serum and antibiotics for 2 h. Subsequently, 500 μg/mL of each OmpU-binding peptide or unrelated control peptide solution were respectively mixed with an equal volume of V. mimicus isolate 04–14 suspension (2 × 10^7 CFU/mL) and incubated for 1 h at 28°C. The mixture was added to each well, and then the plates were incubated for 1 h at 28°C. After 3 times washes, EPC cells were fixed with cooled methanol for 10 min, stained with crystal violet and examined under a light microscope at a magnification of ×1,000. Thirty cells were randomly selected to count the number of adhering bacterial per slide. Each experiment was performed in triplicate, with each sample being repeated in 3 cell wells.

[2] = test system: rOmpU fusion protein adhesion to EPC cells; test: Fluorescence-based adhesion assay: rOmpU protein adhesion to EPC cells; type: cell-based, Vibrio mimicus; settings: 500 μg/mL peptide mixed with equal volume of 500 μg/mL rOmpU, 1 h 28°C, then 1 h on fixed EPC cells; anti-OmpU/FITC immunofluorescence; triplicate
Experimental: Synthetic OmpU-binding peptides were measure for their ability to antagonize OmpU protein adhesion to EPC cells by fluorescence-based adhesion assay. Briefly, EPC cells (1 × 10^6 cells/mL) were seeded in 24-well cell plate containing coverslip (Corning, NY, USA) and cultured to 80% confluence. The cells were gently washed 3 times with PBS and fixed with 4% paraformaldehyde at room temperature for 15 min. After 3 washes with PBS, cells were permeabilized with 0.5% Triton X-100 (500 μL/well) for 15 min. The cells were then washed 3 times with PBS and blocked with 2% BSA for 30 min. Subsequently, 500 μg/mL of each OmpU-binding peptide or irrelevant control peptide (used as negative control) solution were respectively mixed with an equal volume of 500 μg/mL rOmpU fusion protein, and the mixture was incubated for 1 h at 28°C and added to each well. The plates were incubated for 1 h at 28°C. After 3 washes, purified rabbit anti-OmpU antibody (prepared in our previous studies) at a dilution of 1:200 in PBS was added to each well and incubated for 1 h at 28°C, followed by 3 washes in PBS. A 1:100 dilution of FITC (fluorescein isothiocyanate)-labeled goat anti-rabbit IgG (Jackson ImmunoResearch Laboratories, Inc., USA) was added to each well and incubated in the dark for 1 h. After 3 washes in PBS, 4,6-Diamidino-2-phenylindole dihydrochloride (DAPI; Ziyi Reagent Co., Shanghai, China) was used to stain the nucleus, and the coverslips were observed under a fluorescence microscope. Each experiment was performed in triplicate, each sample being tested in three wells.

rOmpU fusion protein = test: Solid phase non-competitive ELISA (Beatty method), affinity constant; type: binding, Vibrio mimicus; settings: for affinity constant: peptide coated 2.5-40 μg/mL, rOmpU 0.2-12.8 μg/mL, modified Beatty formula, triplicate, mean ± SD, SD; for AAP concentration at 50% OD492nm: from fitted curve equation
Experimental: To determine the binding affinity of interactions between adhesion antagonistic peptide and rOmpU fusion protein, solid phase non-competitive ELISA method (also known as the Beatty method) was used to measure the affinity constant of adhesion antagonistic peptide. Briefly, adhesion antagonistic peptides were diluted to 40 μg/mL, 20 μg/mL, 10 μg/mL, 5 μg/mL and 2.5 μg/mL, respectively, and laterally coated onto plate wells (100 μL/well) at 4°C overnight. Next day, each well was blocked with 5% BSA at 37°C for 2 h, and then washed 6 times with TBST. Subsequently, rOmpU fusion protein were diluted to 12.8 μg/mL, 3.2 μg/mL, 0.8 μg/mL and 0.2 μg/mL, respectively, and longitudinally added to coated wells (100 μL/well), and the plates were incubated for 2 h at 37°C. After thorough washing, rabbit anti-rOmpU protein antibody, HRP labeled goat anti-rabbit IgG and substrate solution was added in turn, each step was preceded by 6 washes in TBST. OD492 nm values were finally determined. With OD492nm values as the ordinate and adhesion antagonistic peptide concentration as the abscissa, the binding reaction curves between adhesion antagonistic peptide and rOmpU fusion protein at different concentrations were plotted. MATLAB version 7.0 was used to fitting the binding response curve, and to derive the curve equation. From the equation, the corresponding adhesion antagonistic peptide concentration at 50% OD492nm value in the curve was obtained. The affinity constant K was calculated using a modified version of the Beatty formula [affinity constant (K) = (n—1) / 2 (nAb'total- Abtotal)] [11]. Ab'total and Abtotal in the formula represent respectively the corresponding adhesion antagonistic peptide concentration at 50% OD492nm value in the binding response curve when the concentration of rOmpU protein was P' and P; n represents P/P'. This assay was performed in triplicate.

Sequence | immediate adverse events (enervation or feed intake reduction) (grass carps) | survival in the 7-day study period (grass carps) | average number of adhesion around each cell [1] | green fluorescence on the surface of EPC cells (surface-retained rOmpU) [2] | affinity constant (rOmpU fusion protein) | AAP concentration at 50% OD492nm (rOmpU fusion protein; rOmpU concentration 0.2 μg/mL) | AAP concentration at 50% OD492nm (rOmpU fusion protein; rOmpU concentration 0.8 μg/mL) | AAP concentration at 50% OD492nm (rOmpU fusion protein; rOmpU concentration 3.2 μg/mL) | AAP concentration at 50% OD492nm (rOmpU fusion protein; rOmpU concentration 12.8 μg/mL)
SCTSPHCFMWLP [P2, adhesion antagonistic peptide] | no immediate adverse events | all the treated fish survived | 3.4 ± 0.8 | little or no green fluorescence | (1.24 ± 0.56) × 10^9 L/mol | 0.70 µg/mL | 0.57 µg/mL | 0.56 µg/mL | 0.55 µg/mL
TWTCSDVICTAR [P1, adhesion antagonistic peptide] | no immediate adverse events | all the treated fish survived | 5.1 ± 0.7 and 5.1 ± 0.6 | little or no green fluorescence | (6.17 ± 0.19) × 10^8 L/mol | 1.12 µg/mL | 1.05 µg/mL | 0.98 µg/mL | 0.86 µg/mL
